Measurements published in patent US9169254B2, “Spiroimidazolone derivative” (Chugai Seiyaku Kabushiki Kaisha, priority 2009, dated 2015).

Target: T1, human PTH1 receptor (Homo sapiens, UniProt Q03431)
T1 sequence (Q03431 27-593): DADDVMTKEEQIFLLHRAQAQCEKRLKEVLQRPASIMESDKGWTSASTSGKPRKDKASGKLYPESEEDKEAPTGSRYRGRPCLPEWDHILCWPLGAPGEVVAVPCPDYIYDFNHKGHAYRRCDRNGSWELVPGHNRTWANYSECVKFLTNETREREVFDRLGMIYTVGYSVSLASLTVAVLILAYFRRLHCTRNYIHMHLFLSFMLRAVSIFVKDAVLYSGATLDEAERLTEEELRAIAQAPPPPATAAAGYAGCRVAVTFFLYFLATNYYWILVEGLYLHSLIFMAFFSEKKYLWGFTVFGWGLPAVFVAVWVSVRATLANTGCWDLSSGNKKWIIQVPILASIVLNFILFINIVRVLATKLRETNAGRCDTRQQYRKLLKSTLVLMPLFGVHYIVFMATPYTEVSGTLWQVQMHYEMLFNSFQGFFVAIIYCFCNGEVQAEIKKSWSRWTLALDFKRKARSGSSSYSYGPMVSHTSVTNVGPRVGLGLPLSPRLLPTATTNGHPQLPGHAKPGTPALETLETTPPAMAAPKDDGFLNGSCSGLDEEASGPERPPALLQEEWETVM
Assay: In vitro cAMP signal activity in HKRK-B7 cells (LLC-PK1 cells overexpressing the human PTH1 receptor)
Assay type: cell-based
Conditions: HKRK-B7 cells; compound at 1×10^−3 M; cAMP produced as percentage of that produced by hPTH(1-34) at 100 nM

First: Cc1cc(C(=O)N(C)C)ccc1CCS(=O)(=O)N1CCC2(CC1)N=C(C(C)(C)C)NC2=O [Compound 74, 4-[2-(2-tert-butyl-4-oxo-1,3,8-triaza-spiro[4.5]dec-1-ene-8-sulfonyl)-ethyl]-3,N,N-trimethyl-benzamide]
Second: Cc1cc(C(=O)N(C)C)ccc1CCS(=O)(=O)N1CCC2(CC1)N=C(c1cccc(F)c1C)NC2=O [Compound 114, 4-{2-[2-(3-fluoro-2-methyl-phenyl)-4-oxo-1,3,8-triaza-spiro[4.5]dec-1-ene-8-sulfonyl]-ethyl}-3,N,N-trimethyl-benzamide]
The “cAMP production activity (%)” value of the first is lower: 48% for the first, 105% for the second.

Going from Cc1cc(N2C(=O)CN(C)C2=O)cc(C)c1CCS(=O)(=O)N1CCC2(CC1)N=C(C1CCC(CCC(F)(F)F)CC1)NC2=O (stereo not shown) [Compound 760, 3-[3,5-dimethyl-4-(2-{4-oxo-2-[4-(3,3,3-trifluoro-propyl)-cyclohexyl]-1,3,8-triaza-spiro[4.5]dec-1-ene-8-sulfonyl}-ethyl)-phenyl]-1-methyl-imidazolidine-2,4-dione] to Cc1cc(OC[C@H](O)CO)cc(C)c1CCS(=O)(=O)N1CCC2(CC1)N=C(C1CCC(CCC(F)(F)F)CC1)NC2=O (stereo partly drawn) [Compound 821, 8-{2-[4-((R)-2,3-dihydroxy-propoxy)-2,6-dimethyl-phenyl]-ethanesulfonyl}-2-[4-(3,3,3-trifluoro-propyl)-cyclohexyl]-1,3,8-triaza-spiro[4.5]dec-1-en-4-one], the “cAMP production activity (%)” value falls from 93% to 82%.

Compared with Cc1cc(C(=O)N(C)C)ccc1CCS(=O)(=O)N1CCC2(CC1)N=C(c1cccc(COCC(F)(F)C(F)F)c1)NC2=O [Compound 170, 3,N,N-trimethyl-4-(2-{4-oxo-2-[3-(2,2,3,3-tetrafluoro-propoxymethyl)-phenyl]-1,3,8-triaza-spiro[4.5]dec-1-ene-8-sulfonyl}-ethyl)-benzamide], Cc1cc(C(=O)N(C)C)ccc1CCS(=O)(=O)N1CCC2(CC1)N=C(c1ccc(C(F)(F)F)c(F)c1)NC2=O [Compound 96, 4-{2-[2-(3-fluoro-4-trifluoromethyl-phenyl)-4-oxo-1,3,8-triaza-spiro[4.5]dec-1-ene-8-sulfonyl]-ethyl}-3,N,N-trimethyl-benzamide] is lower in “cAMP production activity (%)” value: 77% for the first, 70% for the second.

First: Cc1cc(C(=O)N2CCC(C)(O)CC2)cc(C)c1/C=C/S(=O)(=O)N1CCC2(CC1)N=C(c1ccc(C(F)(F)F)c(OCC(F)(F)C(F)(F)F)c1)NC2=O [Compound 1228, 8-{(E)-2-[4-(4-hydroxy-4-methyl-piperidine-1-carbonyl)-2,6-dimethyl-phenyl]-ethenesulfonyl}-2-[3-(2,2,3,3,3-pentafluoro-propoxy)-4-trifluoromethyl-phenyl]-1,3,8-triaza-spiro[4.5]dec-1-en-4-one]
Second: Cc1cc(C(=O)N2CCC(O)(CF)CC2)cc(C)c1/C=C/S(=O)(=O)N1CCC2(CC1)N=C(c1ccc(OCC(F)(F)F)c(Cl)c1)NC2=O [Compound 1246, 2-[3-chloro-4-(2,2,2-trifluoro-ethoxy)-phenyl]-8-{(E)-2-[4-(4-fluoromethyl-4-hydroxy-piperidine-1-carbonyl)-2,6-dimethyl-phenyl]-ethenesulfonyl}-1,3,8-triaza-spiro[4.5]dec-1-en-4-one]
The “cAMP production activity (%)” value of the first is lower: 68% for the first, 85% for the second.

Compared with CNc1cc(C)c(/C=C/S(=O)(=O)N2CCC3(CC2)N=C(CCCCCCCC(F)(F)C(F)(F)F)NC3=O)c(C)c1 [Compound 691, 8-[(E)-2-(2,6-Dimethyl-4-methylamino-phenyl)-ethenesulfonyl]-2-(8,8,9,9,9-pentafluoro-nonyl)-1,3,8-triaza-spiro[4.5]dec-1-en-4-one], Cc1cc(N(C)C(N)=O)cc(C)c1/C=C/[S@TB3](=O)(=O)N1CCC2(CC1)N=C(c1cccc(CCCCCC(F)(F)F)c1)NC2=O [Compound 1116, 1-[3,5-dimethyl-4-((E)-2-{4-oxo-2-[3-(6,6,6-trifluoro-hexyl)-phenyl]-1,3,8-triaza-spiro[4.5]dec-1-ene-8-sulfonyl}-vinyl)-phenyl]-1-methyl-urea] is higher in “cAMP production activity (%)” value: 69% for the first, 106% for the second.

Compared with Cc1cc(C(=O)N2CCC2)ccc1CCS(=O)(=O)N1CCC2(CC1)N=C(c1cccc(C(F)(F)F)c1)NC2=O [Compound 381, 8-{2-[4-(azetidine-1-carbonyl)-2-methyl-phenyl]-ethanesulfonyl}-2-(3-trifluoromethyl-phenyl)-1,3,8-triaza-spiro[4.5]dec-1-en-4-one], Cc1cc(OCCCN(C)C)ccc1CCS(=O)(=O)N1CCC2(CC1)N=C(c1cccc(OC(F)(F)F)c1)NC2=O [Compound 295, 8-{2-[4-(3-dimethylamino-propoxy)-2-methyl-phenyl]-ethanesulfonyl}-2-(3-trifluoromethoxy-phenyl)-1,3,8-triaza-spiro[4.5]dec-1-en-4-one] is higher in “cAMP production activity (%)” value: 72% for the first, 95% for the second.

First: Cc1cc(C(=O)N2CCC(O)CC2)cc(C)c1/C=C/S(=O)(=O)N1CCC2(CC1)N=C(c1cccc(OCCCC(F)(F)C(F)(F)F)c1)NC2=O [Compound 1158, 8-{(E)-2-[4-(4-Hydroxy-piperidine-1-carbonyl)-2,6-dimethyl-phenyl]-ethenesulfonyl}-2-[3-(4,4,5,5,5-pentafluoro-pentyloxy)-phenyl]-1,3,8-triaza-spiro[4.5]dec-1-en-4-one]
Second: Cc1cc(C(=O)N2CCC(O)CC2)cc(C)c1CCS(=O)(=O)N1CCC2(CC1)N=C(c1ccc(F)c(OC(F)(F)F)c1)NC2=O [Compound 1334, 2-(4-fluoro-3-trifluoromethoxy-phenyl)-8-{2-[4-(4-hydroxy-piperidine-1-carbonyl)-2,6-dimethyl-phenyl]-ethanesulfonyl}-1,3,8-triaza-spiro[4.5]dec-1-en-4-one]
The “cAMP production activity (%)” value of the first is lower: 103% for the first, 116% for the second.

First: Nc1cc(C(F)(F)F)c(/C=C/S(=O)(=O)N2CCC3(CC2)N=C(C2CCCCC2)NC3=O)c(C(F)(F)F)c1 [Compound 491, 8-[(E)-2-(4-amino-2,6-bis-trifluoromethyl-phenyl)-ethenesulfonyl]-2-cyclohexyl-1,3,8-triaza-spiro[4.5]dec-1-en-4-one]
Second: O=C1NC(C2CCCCC2)=NC12CCN(S(=O)(=O)CCc1csc3ccccc13)CC2 [Compound 319, 8-(2-benzo[b]thiophen-3-yl-ethanesulfonyl)-2-cyclohexyl-1,3,8-triaza-spiro[4.5]dec-1-en-4-one]
The “cAMP production activity (%)” value of the first is higher: 58% for the first, 31% for the second.

First: CC(=O)Nc1ccc(CCS(=O)(=O)N2CCC3(CC2)N=C([C@H]2CCC[C@@H](C)C2)NC3=O)c(C)c1 [Compound 924, N-(3-methyl-4-{2-[2-((1S,3R)-3-methyl-cyclohexyl)-4-oxo-1,3,8-triaza-spiro[4.5]dec-1-ene-8-sulfonyl]-ethyl}-phenyl)-acetamide]
Second: Cc1cc(NC[C@H](O)CO)ccc1CCS(=O)(=O)N1CCC2(CC1)N=C(C1CCCCC1)NC2=O [Compound 321, 2-Cyclohexyl-8-{2-[4-((S)-2,3-dihydroxy-propylamino)-2-methyl-phenyl]-ethanesulfonyl}-1,3,8-triaza-spiro[4.5]dec-1-en-4-one]
The “cAMP production activity (%)” value of the first is higher: 76% for the first, 55% for the second.

Going from Cl.[2H]C([2H])([2H])Nc1cc(C)c(/C=C/S(=O)(=O)N2CCC3(CC2)N=C(c2ccc(F)c(C(F)(F)F)c2)NC3=O)c(C)c1 [Compound 1288, 8-[(E)-2-(2,6-dimethyl-4-[1,1,1-^2H3]methylamino-phenyl)-ethenesulfonyl]-2-(4-fluoro-3-trifluoromethyl-phenyl)-1,3,8-triaza-spiro[4.5]dec-1-en-4-one hydrochloride] to Cc1cc(C(=O)N2CCC(C)(O)CC2)cc(C)c1/C=C/S(=O)(=O)N1CCC2(CC1)N=C(c1ccc(S(F)(F)(F)(F)F)cc1)NC2=O [Compound 1189, 8-{(E)-2-[4-(4-hydroxy-4-methyl-piperidine-1-carbonyl)-2,6-dimethyl-phenyl]-ethenesulfonyl}-2-(4-pentafluorosulfanyl-phenyl)-1,3,8-triaza-spiro[4.5]dec-1-en-4-one], the “cAMP production activity (%)” value rises from 54% to 104%.

Going from CC(=O)OC[C@H](CN(C(C)=O)c1ccc(CCS(=O)(=O)N2CCC3(CC2)N=C(c2ccc(OC(F)(F)F)cc2)NC3=O)c(C)c1)OC(C)=O [Compound 152, acetic acid (S)-1-acetoxymethyl-2-[acetyl-(3-methyl-4-{2-[4-oxo-2-(4-trifluoromethoxy-phenyl)-1,3,8-triaza-spiro[4.5]dec-1-ene-8-sulfonyl]-ethyl}-phenyl)-amino]-ethyl ester] to Cc1cc(N2OCCC2=O)ccc1/C=C/S(=O)(=O)N1CCC2(CC1)N=C(C1CCC(C)CC1)NC2=O (stereo not shown) [Compound 580, 2-(4-methyl-cyclohexyl)-8-{(E)-2-[2-methyl-4-(3-oxo-isoxazolidin-2-yl)-phenyl]-ethenesulfonyl}-1,3,8-triaza-spiro[4.5]dec-1-en-4-one], the “cAMP production activity (%)” value falls from 47% to 25%.
